Measured values: patent US20240174618A1, “SUBSTITUTED (2-HETEROARYLOXYPHENYL)SULFONATES, SALTS THEREOF AND THEIR USE AS HERBICIDAL AGENTS” (Bayer Aktiengesellschaft, priority 2021, published 2024)

Assays:
Assay type in all cases: in vivo
Stellaria media (STEME) [1] = test: A. Herbicidal pre-emergence efficacy, STEME; settings: dosage 1280 g/ha
Text: (§1) Seeds of mono- and dicotyledonous weed plants were placed in plastic pots in sandy loam soil (doubly sown with one species each of mono- or dicotyledonous weed plants per pot) and covered with soil. The compounds of the invention, formulated in the form of wettable powders (WP) or as emulsion concentrates (EC), were then applied onto the surface of the covering soil as aqueous suspension or emulsion with addition of 0.5% additive at a water application rate of 600 liters per hectare (converted). After the treatment, the pots were placed in a greenhouse and kept under good growth conditions for the test plants. After about 3 weeks, the efficacy of the preparations was scored visually in comparison with untreated controls as percentages.
(§2) For example, • 100% efficacy=plants have died, • 0% efficacy=like untreated control plants.
(§3) Tables A1a to A12c below show the effects of selected compounds of the general formula (I) according to table 1 on various harmful plants at an application rate corresponding to 1280 g/ha or less, which were obtained by the experimental procedure mentioned above.

[2] = system: Digitaria sanguinalis (DIGSA); test: A. Herbicidal pre-emergence efficacy, DIGSA; settings: scored visually after about 3 weeks vs untreated controls
Text: as §1, §2, §3

Poa annua (POAAN) [3] = test: A. Herbicidal pre-emergence efficacy, POAAN
Text: as §1, §2, §3

Setaria viridis (SETVI) = test: A. Herbicidal pre-emergence efficacy, SETVI
Text: as §1, §2, §3

[4] = system: Amaranthus retroflexus (AMARE); test: A. Herbicidal pre-emergence efficacy, AMARE
Text: as §1, §2, §3

[5] = system: Abutilon theophrasti (ABUTH); test: B. Herbicidal post-emergence efficacy, ABUTH; settings: rated visually after about 3 weeks
Method: (§4) Seeds of mono- and dicotyledonous weed plants were placed in plastic pots in sandy loam soil (doubly sown with in each case one species of mono- or dicotyledonous weed plants per pot), covered with soil and cultivated in a greenhouse under controlled growth conditions. 2 to 3 weeks after sowing, the test plants were treated at the one-leaf stage. The compounds of the invention, formulated in the form of wettable powders (WP) or as emulsion concentrates (EC), were applied onto the green parts of the plants as aqueous suspension or emulsion with addition of 0.5% additive at a water application rate of 600 liters per hectare (converted). After the test plants had been kept in the greenhouse under optimum growth conditions for about 3 weeks, the activity of the preparations was rated visually in comparison to untreated controls.
(§5) For example, • 100% efficacy=plants have died, • 0% efficacy=like untreated control plants
(§6) Tables B1a to B12c below show the effects of selected inventive compounds of the general formula (I) according to table 1 on various harmful plants at an application rate corresponding to 1280 g/ha or less, which were obtained by the experimental procedure mentioned above.

[6] = system: Echinochloa crus-galli (ECHCG); test: B. Herbicidal post-emergence efficacy, ECHCG; settings: rated visually after about 3 weeks
Method: as §4, §5, §6

Kochia scoparia (KCHSC) [7] = test: B. Herbicidal post-emergence efficacy, KCHSC; settings: for Post-emergence efficacy against KCHSC in %: rated visually after about 3 weeks; for Post-emergence efficacy against KCHSC: 1280 g/ha
Method: as §4, §5, §6

Stellaria media (STEME) [8] = test: B. Herbicidal post-emergence efficacy, STEME
Method: as §4, §5, §6

Veronica persica (VERPE) [9] = test: B. Herbicidal post-emergence efficacy, VERPE
Method: as §4, §5, §6

[10] = system: Amaranthus retroflexus (AMARE); test: B. Herbicidal post-emergence efficacy, AMARE
Method: as §4, §5, §6

[11] = system: Abutilon theophrasti (ABUTH); test: A. Herbicidal pre-emergence efficacy, ABUTH; settings: 1280 g/ha; scored visually after about 3 weeks vs untreated controls
Text: as §1, §2, §3

[12] = system: Echinochloa crus-galli (ECHCG); test: A. Herbicidal pre-emergence efficacy, ECHCG; settings: 1280 g/ha; scored visually after about 3 weeks vs untreated controls
Text: as §1, §2, §3

Kochia scoparia (KCHSC) [13] = test: A. Herbicidal pre-emergence efficacy, KCHSC; settings: pre-emergence, dosage 1280 g/ha
Text: as §1, §2, §3

Veronica persica (VERPE) [14] = test: A. Herbicidal pre-emergence efficacy, VERPE; settings: 1280 g/ha
Text: as §1, §2, §3

Poa annua (POAAN) [15] = test: B. Herbicidal post-emergence efficacy, POAAN; settings: 1280 g/ha
Method: as §4, §5, §6

Compound	Pre-emergence efficacy against DIGSA ([2]; 1280 g/ha)	Pre-emergence efficacy against SETVI (Setaria viridis (SETVI); dosage 1280 g/ha)	Pre-emergence efficacy against AMARE in % ([4]; 320 g/ha)	Pre-emergence efficacy against AMARE in % ([4]; 1280 g/ha)	Post-emergence efficacy against ABUTH in % ([5]; 1280 g/ha)	Post-emergence efficacy against KCHSC in % (Kochia scoparia (KCHSC) [7]; 320 g/ha)	Post-emergence efficacy against KCHSC (Kochia scoparia (KCHSC) [7])	Post-emergence efficacy against STEME (Stellaria media (STEME) [8]; 1280 g/ha)	Post-emergence efficacy against VERPE (Veronica persica (VERPE) [9]; 320 g/ha)	Post-emergence efficacy against VERPE (Veronica persica (VERPE) [9]; 1280 g/ha)	Post-emergence efficacy against AMARE ([10]; 80 g/ha)	Post-emergence efficacy against AMARE ([10]; 320 g/ha)	Post-emergence efficacy against AMARE ([10]; 1280 g/ha)	Pre-emergence efficacy against KCHSC (Kochia scoparia (KCHSC) [13])	other results
CCCCS(=O)(=O)Oc1c(OC)cccc1Oc1ncc(Cl)cn1 [Example I-17]	–	–	–	–	–	–	–	–	–	–	–	–	–	–	Pre-emergence efficacy against STEME (Stellaria media (STEME) [1]): 90%
O=S(=O)(CC1CC1(Cl)Cl)Oc1c(Br)cccc1Oc1ncc(Cl)cn1 (stereo not drawn) [Example I-77]	100%	100%	100%	100%	100%	90%	100%	90%	100%	100%	100%	100%	100%	–	Pre-emergence efficacy against DIGSA ([2]; 320 g/ha): 90%; Pre-emergence efficacy against POAAN (Poa annua (POAAN) [3]; dosage 320 g/ha): 100%; Pre-emergence efficacy against POAAN (Poa annua (POAAN) [3]; dosage 1280 g/ha): 100%; Pre-emergence efficacy against SETVI (Setaria viridis (SETVI); dosage 320 g/ha): 90%; Pre-emergence efficacy against STEME (Stellaria media (STEME) [1]): 90%; Post-emergence efficacy against ABUTH in % ([5]; 80 g/ha): 90%; Post-emergence efficacy against ABUTH in % ([5]; 320 g/ha): 90%; Post-emergence efficacy against ECHCG in % ([6]; 320 g/ha): 90%; Post-emergence efficacy against ECHCG in % ([6]; 1280 g/ha): 100%; Post-emergence efficacy against KCHSC in % (Kochia scoparia (KCHSC) [7]; 80 g/ha): 90%; Post-emergence efficacy against VERPE (Veronica persica (VERPE) [9]; 80 g/ha): 100%
O=S(=O)(CCCCl)Oc1ccccc1Oc1ccc(Cl)cn1 [Example I-27]	100%	100%	90%	90%	–	–	90%	90%	90%	90%	–	90%	100%	100%	Pre-emergence efficacy against ABUTH [11]: 90%; Pre-emergence efficacy against DIGSA ([2]; 320 g/ha): 90%; Pre-emergence efficacy against ECHCG [12]: 90%; Pre-emergence efficacy against POAAN (Poa annua (POAAN) [3]; dosage 320 g/ha): 90%; Pre-emergence efficacy against POAAN (Poa annua (POAAN) [3]; dosage 1280 g/ha): 90%; Pre-emergence efficacy against SETVI (Setaria viridis (SETVI); dosage 320 g/ha): 100%; Pre-emergence efficacy against STEME (Stellaria media (STEME) [1]): 90%; Pre-emergence efficacy against VERPE in % (Veronica persica (VERPE) [14]): 90%
O=S(=O)(CC(F)(F)F)Oc1ccccc1Oc1ncc(Cl)cn1 [Example I-4]	–	–	–	100%	90%	–	90%	90%	90%	100%	–	–	90%	100%	Post-emergence efficacy against POAAN (Poa annua (POAAN) [15]): 90%
O=S(=O)(CCCCl)Oc1ccccc1Oc1ccc(C(F)(F)F)cn1 [Example I-63]	–	–	–	–	–	–	–	–	–	90%	–	–	90%	–	–
O=S(=O)(CC=C(Cl)Cl)Oc1c(Br)cccc1Oc1ncc(Cl)cn1 [Example I-84]	–	100%	90%	100%	90%	90%	100%	100%	100%	100%	90%	100%	100%	90%	Post-emergence efficacy against VERPE (Veronica persica (VERPE) [9]; 80 g/ha): 100%
N#Cc1ccc(Oc2ccccc2OS(=O)(=O)CCCCl)nc1 [Example I-58]	90%	–	–	–	90%	–	90%	–	–	90%	90%	90%	90%	90%	Pre-emergence efficacy against ABUTH [11]: 90%
O=S(=O)(CCCC(F)(F)C(F)(F)F)Oc1c(Br)cccc1Oc1ncc(Cl)cn1 [Example I-67]	90%	100%	100%	100%	100%	100%	100%	100%	100%	100%	100%	100%	100%	100%	Pre-emergence efficacy against VERPE in % (Veronica persica (VERPE) [14]): 100%; Post-emergence efficacy against ABUTH in % ([5]; 80 g/ha): 90%; Post-emergence efficacy against ABUTH in % ([5]; 320 g/ha): 90%; Post-emergence efficacy against KCHSC in % (Kochia scoparia (KCHSC) [7]; 80 g/ha): 90%; Post-emergence efficacy against POAAN (Poa annua (POAAN) [15]): 100%; Post-emergence efficacy against STEME (Stellaria media (STEME) [8]; 320 g/ha): 100%; Post-emergence efficacy against VERPE (Veronica persica (VERPE) [9]; 80 g/ha): 90%
O=S(=O)(CCCCl)Oc1ccccc1Oc1ncc(Br)cc1F [Example I-65]	90%	–	–	100%	90%	–	–	90%	–	90%	–	90%	90%	–	Pre-emergence efficacy against POAAN (Poa annua (POAAN) [3]; dosage 1280 g/ha): 90%
O=[N+]([O-])c1cnc(Oc2ccccc2OS(=O)(=O)CCCCl)c(F)c1 [Example I-61]	–	–	–	–	–	90%	90%	90%	–	90%	90%	90%	90%	–	Pre-emergence efficacy against ECHCG [12]: 100%
O=[N+]([O-])c1ccc(Oc2ccccc2OS(=O)(=O)CCCCl)nc1 [Example I-62]	–	–	–	–	–	–	–	–	–	90%	–	–	90%	–	–
